{
  "source": "patent US10385011B2",
  "about": "“Benzoic acid amide compound” (AMOREPACIFIC CORPORATION, priority 2015, dated 2019)",
  "data": [
    {"tested_on": "Mouse-derived B16F10 melanoma cells", "test": "Effect of reducing melanin production in melanocytes (Dooley's method)", "format": "cell-based", "details": "B16-F10, 120 h, medium with compound replaced for three consecutive days, melanin extracted after 5 days, absorbance at 405 nm, read-out: IC50, concentration required to inhibit melanin production in melanocytes to half", "method": "The effect of inhibiting melanin production of the benzoic acid amide derivative compounds prepared in Examples in melanocytes was measured according to the Dooley's method. Mouse-derived B16F10 melanoma cells acquired from the Korean Cell Line Bank were used as cell lines. DMEM (Cat No. 11995), FBS (Cat No. 16000-044), and antibiotic-antifungal agents (Cat No. 15240-062) necessary for cell culturing were purchased from Invitrogen (GIBCO). The cell lines were cultured under the condition of 37° C. and 5% CO2. The cultured B16F10 cells were detached using 0.05% trypsin-EDTA and inoculated onto a 48-well plate with the same cell number (1×10^4 cells/well). From the next day, the culture medium was replaced with one containing 10 ppm of each compound of Examples for three consecutive days. […] After 5 days, melanin was melted and extracted from the cells by treating with 1 N NaOH at 60° C. for 2 hours, which was quantitated by measuring absorbance at 405 nm. The concentrations (IC50) of Examples required to inhibit melanin production in melanocytes to half were calculated and are given in the following Table 1.", "units": {"IC50": "µM"}, "values": [
      {"smiles": "COc1cc(OC)c(C(C)(C)C)cc1C(=O)NCc1ccc(O)cc1O", "note": "[Example 1, 5-tert-butyl-N-(2,4-dihydroxy-benzyl)-2,4-dimethoxy-benzoic Acid Amide]", "IC50": 2.3},
      {"smiles": "COc1ccc(-c2cc(C(=O)NCc3ccc(O)cc3O)c(OC)cc2OC)cc1", "note": "[Example 5, N-(2,4-dihydroxy-benzyl)-2,4-dimethoxy-5-(4-methoxy-phenyl) Benzoic Acid Amide]", "IC50": 0.7},
      {"smiles": "COc1cc(OC)c(-c2ccc(F)cc2)cc1C(=O)NCc1ccc(O)cc1O", "note": "[Example 6, N-(2,4-dihydroxy-benzyl)-2,4-dimethoxy-5-(4-fluoro-phenyl)-benzoic Acid Amide]", "IC50": 0.7},
      {"smiles": "COc1cc(OC)c(-c2ccc3c(c2)OCO3)cc1C(=O)NCc1ccc(O)cc1O", "note": "[Example 7, 5-benzo[1,3]dioxol-5-yl-N-(2,4-dihydroxy-benzyl)-2,4-dimethoxy-benzoic Acid Amide]", "IC50": 0.7},
      {"smiles": "COc1cc(OC)c(-c2cc(C)cc(C)c2)cc1C(=O)NCc1ccc(O)cc1O", "note": "[Example 8, N-(2,4-dihydroxy-benzyl)-2,4-dimethoxy-5-(3,5-dimethyl-phenyl) Benzoic Acid Amide]", "IC50": 1.5},
      {"smiles": "COc1cc(OC)c(-c2ccc(F)c(F)c2)cc1C(=O)NCc1ccc(O)cc1O", "note": "[Example 9, N-(2,4-dihydroxy-benzyl)-2,4-dimethoxy-5-(3,4-difluoro-phenyl) Benzoic Acid Amide]", "IC50": 0.6},
      {"smiles": "COc1cc(OC)c(-c2cccc([N+](=O)[O-])c2)cc1C(=O)NCc1ccc(O)cc1O", "note": "[Example 10, N-(2,4-dihydroxy-benzyl)-2,4-dimethoxy-5-(3-nitro-phenyl) Benzoic Acid Amide]", "IC50": 1.3},
      {"smiles": "COc1cc(OC)c(C2=CCCCC2)cc1C(=O)NCc1ccc(O)cc1O", "note": "[Example 11, 5-cyclohexene-1-yl-N-(2,4-dihydroxy-benzyl)-2,4-dimethoxy-benzoic Acid Amide]", "IC50": 0.9},
      {"smiles": "COc1cc(OC)c(C2CCCCC2)cc1C(=O)NCc1ccc(O)cc1O", "note": "[Example 12, 5-cyclohexyl-N-(2,4-dihydroxy-benzyl)-2,4-dimethoxy-benzoic Acid Amide]", "IC50": 2.1},
      {"smiles": "CCCCc1ccc(O)cc1O", "note": "[Rucinol, reference compound]", "IC50": 0.8}
    ]}
  ]
}
